The first test concerns Mus musculus. Put plainly: Change in threshold voltage (applied via a subcutaneous and a buccal electrode) for inducing tonic hind limb extension seizures in 50% (CV50) in mouse MEST model at a dose of 10 mg/kg intraperitoneally 30 min pretest. It is filed as functional, Hindlimb.
Conditions: not given
`CC1(C)Oc2ccc(C#N)cc2C(N2CCCC2=O)C1O` (racemic) [CROMAKALIM]: the Change was -16%.

A further test relates to Mus musculus. Put plainly: Change in threshold voltage (applied via a subcutaneous and a buccal electrode) for inducing tonic hind limb extension seizures in 50% (CV50) in mouse MEST model at a dose of 10 mg/kg orally. The format is functional, Hindlimb. As to conditions: route oral.
With `CC1(C)Oc2ccncc2C(NC(=O)c2ccc(F)cc2)[C@@H]1O` (stereo partly specified), the Change is 5%. The same measure, in the same setting: the result for `CC1(C)Oc2ccc(C#N)cc2C(N2CCCC2=O)C1O` (racemic) [CROMAKALIM] reads 4%; that for `CC1(C)Oc2ccc(C(F)(F)F)cc2C(NC(=O)c2ccc(F)cc2)[C@@H]1O` (stereo partly specified), 33%.

In a further test the test system is Mus musculus. The experiment in a line: Increase in threshold voltage (applied via a subcutaneous and a buccal electrode) for inducing tonic hind limb extension seizures in 50% (CV50) in mouse MEST model at a dose of 10 mg/kg orally. It is filed as functional, Hindlimb. The conditions noted are these: route oral.
In the case of `CC1(C)Oc2ccc(C#N)cc2C(NC(=O)c2ccccc2)[C@@H]1O` (stereo partly specified), the Change came to 29%. For `CC(C)(C)c1ccc2c(c1)C(N1CCCC1=O)[C@H](O)C(C)(C)O2` (stereo partly specified), the Change worked out at 12%. The same measure, in the same setting: for `CC1(C)Oc2ccc(C#N)cc2[C@@H](NC(=O)c2cccc(F)c2)[C@@H]1O` the value was 12%; for `CC1(C)C=C(N2CCCC2=O)c2cc(C#N)ccc2O1`, 4%. With `CC1(C)Oc2ccc(C#N)cc2[C@H](NC(=O)c2cccc(F)c2)[C@H]1O`, the Change is 50%. The same measure, in the same setting: for `CC1(C)Oc2ccc(C#N)cc2[C@H](NC(=O)c2ccc(F)cc2)[C@H]1O` the value was 41%. For the compound `CC1(C)Oc2ccc(C#N)cc2[C@@H](NC(=O)c2ccc(F)cc2)[C@@H]1O`, the Change is recorded as 17%. The same measure, in the same setting: the result for `CC1(C)Oc2ccc(C#N)cc2C(NC(=O)c2ccc(F)cc2)[C@@H]1O` (stereo partly specified) reads 49%.

The subject of another test is Mus musculus. Put plainly: Dose required to produce a 50% elevation in seizure threshold after oral administration. It is filed as functional.
Conditions: not given
`NC(=O)N1c2ccccc2C=Cc2ccccc21` [CARBAMAZEPINE] showed an ED50 of 12.7 mg/kg. In the case of `CCC1(c2ccccc2)C(=O)NC(=O)NC1=O` [PHENOBARBITAL], the ED50 is 10.6 mg/kg.

The test system of another test is Mus musculus. Put plainly: Change in threshold voltage (applied via a subcutaneous and a buccal electrode) for inducing tonic hind limb extension seizures in 50% (CV50) in mouse MEST model at a dose of 30 mg/kg orally. The format is functional, Hindlimb. As to conditions: route oral.
Consider `CC1(C)Oc2ccc(C#N)cc2C(NC(=O)c2ccc(C#N)cc2)[C@@H]1O` (stereo partly specified), for which the Change stood at 7%. As to `COc1ccc2c(c1)C(NC(=O)c1ccc(F)cc1)[C@H](O)C(C)(C)O2` (stereo partly specified), the Change is 28%. `CC1(C)Oc2ccc(-c3ccccc3)cc2C(NC(=O)c2ccc(F)cc2)[C@@H]1O` (stereo partly specified): the Change is listed as 20%. Take `CC1(C)Oc2ccc(C#N)cc2C(NC(=O)c2ccc(O)cc2)[C@@H]1O` (stereo partly specified): the Change is -2%. Turning to `CC(C)c1ccc2c(c1)C(NC(=O)c1ccc(F)cc1)[C@H](O)C(C)(C)O2` (stereo partly specified), the Change is 19%. Take `CN(C(=O)c1ccc(F)cc1)C1c2cc(C#N)ccc2OC(C)(C)[C@H]1O` (stereo partly specified): the Change turned out to be 26%. As to `CC1(C)Oc2ccccc2C(NC(=O)c2ccc(F)cc2)[C@@H]1O` (stereo partly specified), the Change is given as 13%.

As a reminder, the ED50 is the dose at which the effect has come halfway, by size or by number of responders.

For the origin of these results see ChEMBL document CHEMBL1128157, “Stereochemical differentiation of anticonvulsant and antihypertensive effects in 4-(fluorobenzoylamino)-benzopyrans” (1995).
